Biological target: T1, His6-PDK1 (aa 52-556) (Homo sapiens, UniProt O15530)
T1 construct: 15 μL His6-PDK1 (aa 52-556) 3.33 ng/well); host or cells: baculovirus-infected insect cells
T1 sequence (O15530 52-556): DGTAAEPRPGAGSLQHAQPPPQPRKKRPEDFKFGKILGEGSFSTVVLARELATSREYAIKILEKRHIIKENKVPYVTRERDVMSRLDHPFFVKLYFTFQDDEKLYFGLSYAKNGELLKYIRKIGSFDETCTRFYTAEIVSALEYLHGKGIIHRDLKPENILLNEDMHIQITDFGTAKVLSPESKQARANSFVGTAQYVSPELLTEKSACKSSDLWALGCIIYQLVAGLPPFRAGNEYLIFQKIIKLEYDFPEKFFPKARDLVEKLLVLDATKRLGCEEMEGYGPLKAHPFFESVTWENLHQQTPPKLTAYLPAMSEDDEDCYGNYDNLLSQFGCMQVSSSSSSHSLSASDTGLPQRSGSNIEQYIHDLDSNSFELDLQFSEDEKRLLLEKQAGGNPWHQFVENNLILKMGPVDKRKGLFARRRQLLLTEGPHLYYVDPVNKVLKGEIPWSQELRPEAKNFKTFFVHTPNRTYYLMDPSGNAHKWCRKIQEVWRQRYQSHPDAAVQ
Assay: PDK1 kinase assay III (with Tween 20)
Assay type: biochemical
Conditions: compound at 10 μM; PDK1 kinase assay III (values without asterisk); read-out: % CTL (residual activity of the enzyme relative to DMSO control)
In short: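 Started with ATP, incubated 90 min at ambient temperature, then stopped with phosphoric acid. Asterisked values come from assay II (24 h or 5 min incubation).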

SMILES | remaining activity at 10 µM
CN(C)Cc1ccc(-c2cc3c(Nc4ccc(CNC(=O)c5cncn(Cc6ccc(F)c(F)c6)c5=O)cc4)ncnc3[nH]2)cc1 [IV-26, 1-(3,4-difluorobenzyl)-N-{4-[(6-{4-[(dimethylamino)methyl]phenyl}-7H-pyrrolo[2,3-d]pyrimidin-4-yl)amino]benzyl}-6-oxo-1,6-dihydropyrimidine-5-carboxamide] | 20.9%
O=C(NCc1ccc(Nc2ncnc3[nH]ccc23)cc1)c1cncn(Cc2ccc(F)c(F)c2)c1=O [IV-27, 1-(3,4-difluorobenzyl)-6-oxo-N-[4-(7H-pyrrolo[2,3-d]pyrimidin-4-ylamino)benzyl]-1,6-dihydropyrimidine-5-carboxamide] | 43.9%
CN(C)Cc1ccc(Nc2ncc3cc(N4CC[C@@H](NC(=O)c5cncn(Cc6ccc(F)c(F)c6)c5=O)C4)ccc3n2)cc1 [IV-29, 1-(3,4-difluorobenzyl)-N-{(3R)-1-[2-({4-[(dimethylamino)methyl]phenyl}amino)-quinazolin-6-yl]pyrrolidin-3-yl}-6-oxo-1,6-dihydropyrimidine-5-carboxamide] | 14.7%
CN(C)Cc1ccc(Nc2ncc3cc(/C=C(\F)CNC(=O)c4cncn(Cc5ccc(F)c(F)c5)c4=O)ccc3n2)cc1 [IV-30, 1-(3,4-difluorobenzyl)-N-{(2Z)-3-[2-({4-[(dimethylamino)methyl]phenyl}amino)-quinazolin-6-yl]-2-fluoroprop-2-en-1-yl}-6-oxo-1,6-dihydropyrimidine-5-carboxamide] | 13.7%
CN(C)Cc1ccc(Nc2ncc3cc(N4CC(NC(=O)c5cncn(Cc6ccc(F)c(F)c6)c5=O)C4)ccc3n2)cc1 [IV-31, 1-(3,4-difluorobenzyl)-N-{1-[2-({4-[(dimethylamino)methyl]phenyl}amino)quinazolin-6-yl]azetidin-3-yl}-6-oxo-1,6-dihydropyrimidine-5-carboxamide] | 20.2%
CC(/C=C/c1ccc2nc(Nc3ccc(CN(C)C)cc3)ncc2c1)NC(=O)c1cncn(Cc2ccc(F)c(F)c2)c1=O (stereo not shown) [IV-32, 1-(3,4-difluorobenzyl)-N-{(3E)-4-[2-({4-[(dimethylamino)methyl]phenyl}amino)-quinazolin-6-yl]but-3-en-2-yl}-6-oxo-1,6-dihydropyrimidine-5-carboxamide] | 19%
CN(C)Cc1ccc(Nc2ncc3c(F)c(/C=C/CNC(=O)c4cncn(Cc5ccc(F)c(F)c5)c4=O)ccc3n2)cc1 [IV-33, 1-(3,4-difluorobenzyl)-N-{(2E)-3-[2-({4-[(dimethylamino)methyl]phenyl}amino)-5-fluoroquinazolin-6-yl]prop-2-en-1-yl}-6-oxo-1,6-dihydropyrimidine-5-carboxamide] | 14.9%
Cc1c(C(=O)NC/C=C/c2ccc3nc(Nc4ccc(CN(C)C)cc4)ncc3c2F)c(=O)n(Cc2ccc(F)c(F)c2)n1C [IV-34, 2-(3,4-difluorobenzyl)-N-{(2E)-3-[2-({4-[(dimethylamino)methyl]phenyl}amino)-5-fluoroquinazolin-6-yl]prop-2-en-1-yl}-1,5-dimethyl-3-oxo-2,3-dihydro-1H-pyrazole-4-carboxamide] | 14.4%
CN1CCC(N(C)c2ccc(Nc3ncc4c(F)c(/C=C/CNC(=O)c5cncn(Cc6ccc(F)c(F)c6)c5=O)ccc4n3)cc2)CC1 [IV-35, 1-(3,4-difluorobenzyl)-N-{(2E)-3-[5-fluoro-2-({4-[methyl(1-methylpiperidin-4-yl)amino]phenyl}amino)quinazolin-6-yl]prop-2-en-1-yl}-6-oxo-1,6-dihydropyrimidine-5-carboxamide] | 13.9%
Cc1c(C(=O)NC/C=C/c2ccc3nc(Nc4ccc(N(C)C5CCN(C)CC5)cc4)ncc3c2F)c(=O)n(Cc2ccc(F)c(F)c2)n1C [IV-36, 2-(3,4-difluorobenzyl)-N-{(2E)-3-[5-fluoro-2-({4-[methyl(1-methylpiperidin-4-yl)amino]phenyl}amino)quinazolin-6-yl]prop-2-en-1-yl}-1,5-dimethyl-3-oxo-2,3-dihydro-1H-pyrazole-4-carboxamide] | 14.2%
Cc1c(/C=C/CNC(=O)c2c(C)n(C)n(Cc3ccc(F)c(F)c3)c2=O)c(=O)n(C(C)C)c2nc(Nc3ccc(N4CCOCC4)cc3)ncc12 [IV-37, 2-(3,4-difluorobenzyl)-1,5-dimethyl-N-{(2E)-3-[5-methyl-2-{[4-(morpholin-4-yl)phenyl]amino}-7-oxo-8-(propane-2-yl)-7,8-dihydropyrido[2,3-c]pyrimidin-6-yl]prop-2-en-1-yl}-3-oxo-2,3-dihydro-1H-pyrazole-4-carboxamide] | 15.4%
Cc1c(/C=C/CNC(=O)c2cncn(Cc3ccc(F)c(F)c3)c2=O)c(=O)n(C(C)C)c2nc(Nc3ccc(N4CCOCC4)cc3)ncc12 [IV-38, 1-(3,4-difluorobenzyl)-N-{(2E)-3-[5-methyl-2-{[4-(morpholin-4-yl)phenyl]amino}-7-oxo-8-(propane-2-yl)-7,8-dihydropyrido[2,3-d]pyrimidin-6-yl]prop-2-en-1-yl}-6-oxo-1,6-dihydropyrimidine-5-carboxamide] | 11.8%

More lines, now with the values ahead:

remaining activity at 10 µM | SMILES
17.9% | CN(C)Cc1ccc(Nc2ncc3cc(/C=C/CNC(=O)c4cc(Cl)nn(Cc5ccc(F)c(F)c5)c4=O)ccc3n2)cc1 [IV-39, 6-chloro-2-(3,4-difluorobenzyl)-N-{(2E)-3-[2-({4-[(dimethylamino)methyl]phenyl}amino)quinazolin-6-yl]prop-2-en-1-yl}-3-oxo-2,3-dihydropyridazine-4-carboxamide]
24.4% | O=C(NCc1ccc(-c2cnc3[nH]ccc3c2)s1)c1cncn(Cc2ccc(F)c(F)c2)c1=O [IV-41, 1-(3,4-difluorobenzyl)-6-oxo-N-{[5-(1H-pyrrolo[2,3-b]pyridin-5-yl)thiophen-2-yl]methyl}-1,6-dihydropyrimidine-5-carboxamide]
27.7% | Cc1c(C(=O)NCc2ccc(-c3cnc4[nH]ccc4c3)s2)c(=O)n(Cc2ccc(F)c(F)c2)n1C [IV-42, 2-(3,4-difluorobenzyl)-1,5-dimethyl-3-oxo-N-{[5-(1H-pyrrolo[2,3-b]pyridin-5-yl)thiophen-2-yl]methyl}-2,3-dihydro-1H-pyrazole-4-carboxamide]
17.3% | CN1CCC(Nc2ccc(Nc3ncc4cc(/C=C/CNC(=O)c5cn(C)c(=O)n(Cc6ccc(F)c(F)c6)c5=O)ccc4n3)cc2F)CC1 [IV-43, 3-(3,4-difluorobenzyl)-N-{(2E)-3-[2-({3-fluoro-4-[(1-methylpiperidin-4-yl)amino]-phenyl}amino)quinazolin-6-yl]prop-2-en-1-yl}-1-methyl-2,4-dioxo-1,2,3,4-tetrahydro-pyrimidine-5-carboxamide]
16.3% | CN1CCC(N(C)c2ccc(Nc3ncc4cc(/C=C/CNC(=O)c5cn(C)c(=O)n(Cc6ccc(F)c(F)c6)c5=O)ccc4n3)cc2)CC1 [IV-44, 3-(3,4-difluorobenzyl)-1-methyl-N-{(2E)-3-[2-({4-[methyl(1-methylpiperidin-4-yl)amino]phenyl}amino)quinazolin-6-yl]prop-2-en-1-yl}-2,4-dioxo-1,2,3,4-tetrahydro-pyrimidine-5-carboxamide]
15.3% | CN1CCC(N(C)c2ccc(Nc3ncc4cc(/C=C/CNC(=O)c5cncn(Cc6ccc(F)c(F)c6)c5=O)ccc4n3)cc2)CC1 [IV-45, 1-(3,4-difluorobenzyl)-N-{(2E)-3-[2-({4-[methyl(1-methylpiperidin-4-yl)amino]-phenyl}amino)quinazolin-6-yl]prop-2-en-1-yl}-6-oxo-1,6-dihydropyrimidine-5-carboxamide]
11.9% | CN1CCC(Nc2ccc(Nc3ncc4cc(/C=C/CNC(=O)c5cncn(Cc6ccc(F)c(F)c6)c5=O)ccc4n3)cc2F)CC1 [IV-46, 1-(3,4-difluorobenzyl)-N-{(2E)-3-[2-({3-fluoro-4-[(1-methylpiperidin-4-yl)amino]-phenyl}amino)quinazolin-6-yl]prop-2-en-1-yl}-6-oxo-1,6-dihydropyrimidine-5-carboxamide]
24.4% | Nc1ncc2cc(/C=C/CNC(=O)c3cncn(Cc4ccc(F)c(F)c4)c3=O)ccc2n1 [IV-48, N-[(2E)-3-(2-aminoquinazolin-6-yl)prop-2-en-1-yl]-1-(3,4-difluorobenzyl)-6-oxo-1,6-dihydropyrimidine-5-carboxamide]
13.5% | CN1CCC(N(C)c2ccc(Nc3ncc4cc(/C=C/CNC(=O)c5nccn(Cc6ccc(F)c(F)c6)c5=O)ccc4n3)cc2)CC1 [IV-49, 4-(3,4-difluorobenzyl)-N-{(2E)-3-[2-({4-[methyl(1-methylpiperidin-4-yl)amino]-phenyl}amino)quinazolin-6-yl]prop-2-en-1-yl}-3-oxo-3,4-dihydropyrazine-2-carboxamide]
11.6% | CN1CCC(Nc2ccc(Nc3ncc4cc(/C=C/CNC(=O)c5nccn(Cc6ccc(F)c(F)c6)c5=O)ccc4n3)cc2F)CC1 [IV-50, 4-(3,4-difluorobenzyl)-N-{(2E)-3-[2-({3-fluoro-4-[(1-methylpiperidin-4-yl)amino]-phenyl}amino)quinazolin-6-yl]prop-2-en-1-yl}-3-oxo-3,4-dihydropyrazine-2-carboxamide]

From patent US20110313156A1 (BOEHRINGER INGELHEIM INTERNATIONAL GMBH, priority 2008, published 2011)
